Measured values taken from US8747901B2 (Reata Pharmaceuticals, Inc., priority 2009, dated 2014).

Settings: human, in vivo
Description: The synthetic triterpenoid bardoxolone methyl, also known as CDDO-Me and as “RTA 402,” has shown potent anti-inflammatory and anti-tumor properties in preclinical studies and in human clinical trials. […] In these studies bardoxolone methyl was administered orally in a crystalline form (“Form A”), once daily, at a variety of doses.

oral bioavailability: relatively low oral bioavailability
Structure (SMILES): COC(=O)[C@]12CCC(C)(C)C[C@H]1[C@H]1C(=O)C=C3[C@@]4(C)C=C(C#N)C(=O)C(C)(C)[C@@H]4CC[C@@]3(C)[C@]1(C)CC2 [Form A bardoxolone methyl, bardoxolone methyl]
tolerability profile (po): excellent tolerability profile with very few drug-related side effects
